Assay results published in patent US20080153896A1, “Polymorphic Forms of an HMG-CoA Reductase Inhibitor and Uses Thereof” (priority 2006, published 2008).

Experiment: Stability (integrity) testing of amorphous and polymorphic form under storage conditions, RP-HPLC
Format: physicochemical
Set-up: Impurity RRT 1.104 / Impurity RRT 1.698: unit not given beside the values
Experimental: The integrity of the different forms of the (3R, 5R)-7-[2-(4-fluorophenyl)-5-isopropyl-3-phenyl-4-[(4-hydroxymethylphenylamino)carbonyl]-pyrrol-1-yl]-3,5-dihydroxy-heptanoic acid, hemi calcium salt, was tested under different atmospheric conditions to determine the stability of the amorphous and polymorphic form of the drug in various storage environments. Reversed Phase-HPLC (RP-HPLC) was used to separate (3R, 5R)-7-[2-(4-fluorophenyl)-5-isopropyl-3-phenyl-4-[(4-hydroxymethylphenylamino)carbonyl]-pyrrol-1-yl]-3,5-dihydroxy-heptanoic acid, hemi calcium salt, from smaller molecules representing breakdown products as well as oxidized drug. The relative amount of the drug was reported as a percent of total absorption by UV. The total peak area of all UV absorption impurities was used to define total impurity of the drug. Impurities are defined by their relative retention time (RRT) compared to native drug. Samples were injected onto a C18 column using standard temperature, gradient and run-time conditions.
The results of this integrity testing for the amorphous form of (3R, 5R)-7-[2-(4-fluorophenyl)-5-isopropyl-3-phenyl-4-[(4-hydroxymethylphenylamino)carbonyl]-pyrrol-1-yl]-3,5-dihydroxy-heptanoic acid, hemi calcium salt, is shown in Table 5.
Three separate batches of polymorphic Form I of (3R, 5R)-7-[2-(4-fluorophenyl)-5-isopropyl-3-phenyl-4-[(4-hydroxymethylphenylamino)carbonyl]-pyrrol-1-yl]-3,5-dihydroxy-heptanoic acid, hemi calcium salt, were prepared and tested under the same atmospheric conditions described for the amorphous form.

[1] = 25° C./60% RH 12M, hemi calcium salt
[2] = 30° C./65% RH 1M, hemi calcium salt
[3] = 30° C./65% RH 2M, hemi calcium salt
[4] = 30° C./65% RH 3M, hemi calcium salt
[5] = 30° C./65% RH 6M, hemi calcium salt
[6] = 30° C./65% RH 9M, hemi calcium salt
[7] = 30° C./65% RH 12M, hemi calcium salt
[8] = 40° C./75% RH 1M, hemi calcium salt
[9] = 40° C./75% RH 2M, hemi calcium salt
[10] = 40° C./75% RH 3M, hemi calcium salt
[11] = 40° C./75% RH 6M, hemi calcium salt
[12] = Initial, listed as Batch 2 of Polymorphic Form I, hemi calcium salt

Impurity RRT 1.439 (25° C./60% RH 12M): 0.152
Impurity RRT 1.596 (25° C./60% RH 12M): 0.046
Impurity RRT 1.698 (25° C./60% RH 12M): 0.053
Assay [1]: 98.25 % W/W
Highest Impurity [1]: 0.407
Impurity RRT 0.935 [1]: 0.365
Impurity RRT 1.045 [1]: 0.407
Impurity RRT 1.640 [1]: 0.052
Total Impurity [1]: 1.522
Water [1]: 5.02 % W/W
Description (30° C./65% RH 1M): White
Impurity RRT 1.096 (30° C./65% RH 1M): 0.24
Impurity RRT 1.439 (30° C./65% RH 1M): 0.151
Impurity RRT 1.596 (30° C./65% RH 1M): 0.076
Impurity RRT 1.698 (30° C./65% RH 1M): 0.065
Water (30° C./65% RH 1M): 4.16 % W/W
Assay [2]: 98.23 % W/W
Highest Impurity [2]: 0.444
Impurity RRT 0.935 [2]: 0.396
Impurity RRT 1.045 [2]: 0.444
Impurity RRT 1.64 [2]: 0.06
Total Impurity [2]: 1.44
Description (30° C./65% RH 2M): White
Impurity RRT 1.096 (30° C./65% RH 2M): 0.242
Impurity RRT 1.183 (30° C./65% RH 2M): 0.063
Impurity RRT 1.439 (30° C./65% RH 2M): 0.165
Impurity RRT 1.596 (30° C./65% RH 2M): 0.074
Impurity RRT 1.698 (30° C./65% RH 2M): 0.069
Assay [3]: 98.20 % W/W
Highest Impurity [3]: 0.449
Impurity RRT 0.935 [3]: 0.411
Impurity RRT 1.045 [3]: 0.449
Impurity RRT 1.64 [3]: 0.063
Total Impurity [3]: 1.54
Water [3]: 4.16 % W/W
Description (30° C./65% RH 3M): White
Impurity RRT 1.096 (30° C./65% RH 3M): 0.229
Impurity RRT 1.439 (30° C./65% RH 3M): 0.158
Impurity RRT 1.596 (30° C./65% RH 3M): 0.074
Impurity RRT 1.698 (30° C./65% RH 3M): 0.062
Assay [4]: 98.14 % W/W
Highest Impurity [4]: 0.437
Impurity RRT 0.935 [4]: 0.399
Impurity RRT 1.045 [4]: 0.437
Impurity RRT 1.64 [4]: 0.058
Total Impurity [4]: 1.42
Water [4]: 5.02 % W/W
Description (30° C./65% RH 6M): White
Impurity RRT 1.096 (30° C./65% RH 6M): 0.218
Impurity RRT 1.439 (30° C./65% RH 6M): 0.156
Impurity RRT 1.596 (30° C./65% RH 6M): 0.070
Impurity RRT 1.698 (30° C./65% RH 6M): 0.063
Assay [5]: 98.09 % W/W
Highest Impurity [5]: 0.460
Impurity RRT 0.935 [5]: 0.409
Impurity RRT 1.045 [5]: 0.460
Impurity RRT 1.640 [5]: 0.054
Total Impurity [5]: 1.430
Water [5]: 4.96 % W/W
Description (30° C./65% RH 9M): White
Impurity RRT 1.096 (30° C./65% RH 9M): 0.232
Impurity RRT 1.183 (30° C./65% RH 9M): 0.036
Impurity RRT 1.439 (30° C./65% RH 9M): 0.182
Impurity RRT 1.596 (30° C./65% RH 9M): 0.053
Impurity RRT 1.698 (30° C./65% RH 9M): 0.048
Assay [6]: 98.07 % W/W
Highest Impurity [6]: 0.442
Impurity RRT 0.935 [6]: 0.404
Impurity RRT 1.045 [6]: 0.442
Impurity RRT 1.640 [6]: 0.058
Total Impurity [6]: 1.455
Water [6]: 5.10 % W/W
Description (30° C./65% RH 12M): White
Impurity RRT 0.138 (30° C./65% RH 12M): 0.200
Impurity RRT 1.096 (30° C./65% RH 12M): 0.192
Impurity RRT 1.183 (30° C./65% RH 12M): 0.048
Impurity RRT 1.439 (30° C./65% RH 12M): 0.163
Impurity RRT 1.596 (30° C./65% RH 12M): 0.065
Impurity RRT 1.698 (30° C./65% RH 12M): 0.045
Assay [7]: 98.35 % W/W
Highest Impurity [7]: 0.399
Impurity RRT 0.935 [7]: 0.399
Impurity RRT 1.045 [7]: 0.360
Impurity RRT 1.640 [7]: 0.048
Total Impurity [7]: 1.520
Water [7]: 4.87 % W/W
Description (40° C./75% RH 1M): White
Impurity RRT 1.096 (40° C./75% RH 1M): 0.244
Impurity RRT 1.439 (40° C./75% RH 1M): 0.153
Impurity RRT 1.596 (40° C./75% RH 1M): 0.080
Impurity RRT 1.698 (40° C./75% RH 1M): 0.062
Assay [8]: 98.15 % W/W
Highest Impurity [8]: 0.444
Impurity RRT 0.935 [8]: 0.404
Impurity RRT 1.045 [8]: 0.444
Impurity RRT 1.64 [8]: 0.061
Total Impurity [8]: 1.45
Water [8]: 4.71 % W/W
Description (40° C./75% RH 2M): White
Impurity RRT 1.096 (40° C./75% RH 2M): 0.234
Impurity RRT 1.183 (40° C./75% RH 2M): 0.072
Impurity RRT 1.439 (40° C./75% RH 2M): 0.175
Impurity RRT 1.596 (40° C./75% RH 2M): 0.079
Impurity RRT 1.698 (40° C./75% RH 2M): 0.065
Assay [9]: 98.19 % W/W
Highest Impurity [9]: 0.457
Impurity RRT 0.935 [9]: 0.416
Impurity RRT 1.045 [9]: 0.457
Impurity RRT 1.64 [9]: 0.066
Total Impurity [9]: 1.56
Water [9]: 4.35 % W/W
Description (40° C./75% RH 3M): White
Impurity RRT 1.096 (40° C./75% RH 3M): 0.229
Impurity RRT 1.439 (40° C./75% RH 3M): 0.165
Impurity RRT 1.596 (40° C./75% RH 3M): 0.078
Impurity RRT 1.698 (40° C./75% RH 3M): 0.06
Assay [10]: 98.09 % W/W
Highest Impurity [10]: 0.442
Impurity RRT 0.935 [10]: 0.413
Impurity RRT 1.045 [10]: 0.442
Impurity RRT 1.64 [10]: 0.056
Total Impurity [10]: 1.44
Water [10]: 4.45 % W/W
Description (40° C./75% RH 6M): White
Impurity RRT 0.138 (40° C./75% RH 6M): 0.270
Impurity RRT 1.096 (40° C./75% RH 6M): 0.217
Impurity RRT 1.439 (40° C./75% RH 6M): 0.146
Impurity RRT 1.596 (40° C./75% RH 6M): 0.073
Impurity RRT 1.698 (40° C./75% RH 6M): 0.052
Assay [11]: 98.14 % W/W
Highest Impurity [11]: 0.410
Impurity RRT 0.935 [11]: 0.377
Impurity RRT 1.045 [11]: 0.410
Impurity RRT 1.640 [11]: 0.045
Total Impurity [11]: 1.590
Water [11]: 5.45 % W/W
Description (Initial): White
Impurity RRT 1.096 (Initial): 0.229
Impurity RRT 1.439 (Initial): 0.168
Impurity RRT 1.596 (Initial): 0.075
Impurity RRT 1.698 (Initial): 0.062
Assay [12]: 98.45 % W/W
Highest Impurity [12]: 0.457
Impurity RRT 0.935 [12]: 0.413
Impurity RRT 1.045 [12]: 0.457
Impurity RRT 1.64 [12]: 0.057
Total Impurity [12]: 1.46
Water [12]: 4.92 % W/W
Compound: CC(C)c1c(C(=O)Nc2ccc(CO)cc2)c(-c2ccccc2)c(-c2ccc(F)cc2)n1CC[C@@H](O)C[C@@H](O)CC(=O)[O-].CC(C)c1c(C(=O)Nc2ccc(CO)cc2)c(-c2ccccc2)c(-c2ccc(F)cc2)n1CC[C@@H](O)C[C@@H](O)CC(=O)[O-].[Ca+2] [PP00105, (3R, 5R)-7-[2-(4-fluorophenyl)-5-isopropyl-3-phenyl-4-[(4-hydroxymethylphenylamino)carbonyl]-pyrrol-1-yl]-3,5-dihydroxy-heptanoic acid, hemi calcium salt]
